Assay results taken from paper PMC6450877, “A revised biosynthetic pathway for the cofactor F420 in prokaryotes” (Nature Communications, 2019).

What was measured:
Mtb-FbiA [1] = target: T1, Mtb-FbiA (Mycobacterium tuberculosis, UniProt P9WP81)
Mtb-FbiD [2] = target: T2, Mtb-FbiD (Mycobacterium tuberculosis, UniProt P9WP83)
Mtb-FbiB [3] = target: T3, Mtb-FbiB (Mycobacterium tuberculosis, UniProt P9WP79)
Mj-CofC = target: T4, Mj-CofC (Methanocaldococcus jannaschii, UniProt Q58297); assay: coupled HPLC-MS assay with Mtb-FbiA; format: biochemical; conditions: Mtb-FbiA present, 1 mM PEP, 2 mM GTP, 0.1 mM Fo, 5 mM MgCl2, pH 7.5, 37 °C
T4 construct: synthetic ORF in pYUB28b, expressed in E. coli, Ni-NTA and SEC
T4 sequence (Q58297 1-224): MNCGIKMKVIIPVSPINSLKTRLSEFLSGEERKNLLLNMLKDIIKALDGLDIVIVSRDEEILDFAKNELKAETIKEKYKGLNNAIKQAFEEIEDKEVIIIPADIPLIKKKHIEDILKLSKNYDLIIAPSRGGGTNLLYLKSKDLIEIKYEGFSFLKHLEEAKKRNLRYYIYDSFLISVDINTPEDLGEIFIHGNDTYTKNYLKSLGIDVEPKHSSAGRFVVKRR

Mtb-FbiD [4] = target: T2, Mtb-FbiD; remark: listed apart in the source
Mtb-FbiA [5] = target: T1, Mtb-FbiA; remark: listed apart in the source
Mtb-FbiB [6] = target: T3, Mtb-FbiB; remark: listed apart in the source

T2 sequence (P9WP83 whole entry): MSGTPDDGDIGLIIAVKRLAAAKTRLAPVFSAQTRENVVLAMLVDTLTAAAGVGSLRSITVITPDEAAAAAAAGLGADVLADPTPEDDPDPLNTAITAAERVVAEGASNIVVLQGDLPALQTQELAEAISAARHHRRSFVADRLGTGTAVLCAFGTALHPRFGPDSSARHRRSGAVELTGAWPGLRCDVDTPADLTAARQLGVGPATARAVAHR
T3 sequence (P9WP79 whole entry): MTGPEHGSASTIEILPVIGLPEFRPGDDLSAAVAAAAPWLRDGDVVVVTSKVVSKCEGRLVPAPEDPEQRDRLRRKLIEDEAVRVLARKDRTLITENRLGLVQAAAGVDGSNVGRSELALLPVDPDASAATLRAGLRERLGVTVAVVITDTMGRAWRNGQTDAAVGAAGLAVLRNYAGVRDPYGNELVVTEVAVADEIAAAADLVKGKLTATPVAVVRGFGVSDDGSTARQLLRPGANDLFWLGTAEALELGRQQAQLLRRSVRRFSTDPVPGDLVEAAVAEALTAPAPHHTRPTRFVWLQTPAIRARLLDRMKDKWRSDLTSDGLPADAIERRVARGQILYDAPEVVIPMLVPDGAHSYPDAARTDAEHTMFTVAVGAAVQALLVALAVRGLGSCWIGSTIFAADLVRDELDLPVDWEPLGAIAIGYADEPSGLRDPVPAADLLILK
T1 sequence (P9WP81 whole entry): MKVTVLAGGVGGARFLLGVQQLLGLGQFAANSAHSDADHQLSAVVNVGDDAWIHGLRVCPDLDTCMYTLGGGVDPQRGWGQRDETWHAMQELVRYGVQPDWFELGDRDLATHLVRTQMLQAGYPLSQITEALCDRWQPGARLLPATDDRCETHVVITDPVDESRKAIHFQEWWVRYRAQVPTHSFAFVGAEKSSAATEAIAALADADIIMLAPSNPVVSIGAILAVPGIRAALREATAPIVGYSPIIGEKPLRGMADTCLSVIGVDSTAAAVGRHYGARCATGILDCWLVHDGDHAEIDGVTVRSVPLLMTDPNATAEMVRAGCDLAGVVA

O=c1nc2n(C[C@H](O)[C@H](O)[C@H](O)CO)c3cc(O)ccc3cc-2c(=O)[nH]1 [Fo, 7,8-didemethyl-8-hydroxy-5-deazariboflavin]
coupled HPLC-MS assay with FbiD or CofC (Mtb-FbiA [1]): when these enzymes were incubated with PEP, GTP (or ATP), and Fo

Nc1nc2c(ncn2[C@@H]2O[C@H](COP(=O)(O)OP(=O)(O)OP(=O)(O)O)[C@@H](O)[C@H]2O)c(=O)[nH]1 [GTP, guanosine-5ʹ-triphosphate]
coupled HPLC-MS assay with FbiA (Mtb-FbiD [2]): Mtb-FbiD exclusively utilizes GTP to produce dehydro-F420-0

N[C@@H](CCC(=O)O)C(=O)O [L-glutamate]
coupled FbiD:FbiA:FbiB assay, LC-MS (Mtb-FbiB [3]): Mtb-FbiB was observed to catalyze the addition of L-glutamate residues to dehydro-F420-0

C=C(OP(=O)(O)O)C(=O)O [PEP, phosphoenolpyruvate]
coupled HPLC-MS assay with Mtb-FbiA (Mj-CofC): both Mtb-FbiD and CofC from Methanocaldococcus jannaschii (Mj-CofC) enzymes use PEP to produce dehydro-F420-0
X-ray crystal structure, soak, 2.18 Å (Mtb-FbiD [4]): We also soaked PEP into pre-formed FbiD crystals to obtain an FbiD-PEP complex

C=C(OP(=O)(O)OC[C@@H](O)[C@@H](O)[C@@H](O)Cn1c2nc(=O)[nH]c(=O)c-2cc2ccc(O)cc21)C(=O)O [dehydro-F420-0]
coupled HPLC assay, MS/MS (Mtb-FbiA [5]): The discovery of dehydro-F420-0 as the product of FbiD:FbiA activity in mycobacteria
coupled FbiD:FbiA:FbiB assay with Fre/FMNH2, MS/MS (Mtb-FbiB [6]): dehydro-F420-0 is a bona fide metabolic intermediate that can be converted to mature F420 by FbiB
